Measured values taken from patent publication US10590126B2, “Non-selective protease activated receptor 4 ALA120THR isoform antagonist” (THOMAS JEFFERSON UNIVERSITY, priority 2015, dated 2020).
“Also recorded” adds a separate entry of the source.

Tests used:
[1] = test system: PAR4 Ala120 and Thr120 variants; test: PAR4-induced platelet activation, platelets of subjects of the 3 genotypes (FIG. 1); assay type: cell-based, human; settings: subjects with and without the Thr120 variant (Ala/Ala, Ala/Thr, Thr/Thr)
Method: FIG. 1. Summary of results using all three PAR4 variants. […] Data are shown as the average of the percent of maximal activation, where maximal activation was the DMSO data.
[…] of mouse or PAC1 was added to each sample of platelets that contained compounds. 5 mL of compound was added to inhibitor samples. Tyrodes with 1% final concentration, DMSO were added to inhibitor samples with no controls. Each sample was incubated for two minutes. 5.5 mL of PAR4-AP was added to all samples except the no agonist control. Final concentrations of samples=[…]. Samples were gently mixed and sat at room temperature for 10 minutes. 50 mL of 2% paraformaldehyde was added to each sample and sat at room temperature for 10 minutes. 500 mL of Tyrodes were then added and samples were run of the C6 Accuri.

[2] = test system: platelets expressing PAR4 Ala120; settings: individuals expressing PAR4 Ala120; cited from earlier work
[3] = test system: platelets expressing PAR4 Thr120; settings: individuals expressing PAR4 Thr120; cited from earlier work

Row | SMILES | blockade of PAR4-induced platelet activation [1] | blockade of PAR4-induced platelet activation ([1]; listed as VU478046-1) | inhibiting platelet aggregation [2] | inhibiting platelet aggregation [3]
1 | Cn1c(CO)c(-c2ccccc2)c2cc([N+](=O)[O-])ccc21 [VU0099704-4] | effectively blocked; also recorded: greatest effective blockade | – | – | –
2 | CCCNCc1c(-c2ccccc2)c2cc([N+](=O)[O-])ccc2n1C [VU0478046-1] | effectively blocked | greatest effective blockade | – | –
3 | CNCc1c(-c2ccccc2)c2cc([N+](=O)[O-])ccc2n1C [VU0478944-1] | effectively blocked; also recorded: greatest effective blockade | – | – | –
4 | COC(=O)[C@H](c1ccccc1Cl)N1CCc2sccc2C1 [clopidogrel] | – | – | selective | not effective
